# According to patent US20240041877A1, “DOSAGE REGIME AND METHOD FOR TREATING PULMONARY ARTERIAL HYPERTENSION” (Altavant Sciences GmbH, priority 2019, published 2024):
# Experiment: Study KAR5585-101 Part 1 (SAD): plasma pharmacokinetics after a single oral dose of KAR5585, fasting and fed (incl. dose proportionality and food effect)
# Settings: for AUC(0-t) / AUC(0-inf) / AUC / concentration at 12 h / Cmax / half-life / Tmax: human, plasma, po; for AUC: AUC0-tau
# [1] = 400 mg, Geometric Mean, Cohort 3A (Fasting), 400 mg KAR5585 single oral dose, fasting
# [2] = 400 mg, Geometric Mean, Cohort 3B (Fed), 400 mg KAR5585 single oral dose, fed
# [3] = 400 mg, KAR5417 after 400 mg KAR5585 single oral, fasted, Cohort 3A, Geo. Mean
# [4] = 400 mg, KAR5417 after 400 mg KAR5585 single oral, fasted, Cohort 3A, Mean
# [5] = 400 mg, KAR5417 after 400 mg KAR5585 single oral, fed, Cohort 3B, Geo. Mean
# [6] = 400 mg, KAR5417 after 400 mg KAR5585 single oral, fed, Cohort 3B, Mean
# [7] = 700 mg, KAR5417 after 700 mg KAR5585 single oral, fasted, Cohort 4, Geo. Mean
# [8] = 700 mg, KAR5417 after 700 mg KAR5585 single oral, fasted, Cohort 4, Mean
# [9] = 1200 mg, KAR5417 after 1200 mg KAR5585 single oral, fasted, Cohort 5, Geo. Mean
# [10] = 1200 mg, KAR5417 after 1200 mg KAR5585 single oral, fasted, Cohort 5, Mean
# [11] = 2000 mg, KAR5417 after 2000 mg KAR5585 single oral, fasted, Cohort 6, Geo. Mean
# [12] = 2000 mg, KAR5417 after 2000 mg KAR5585 single oral, fasted, Cohort 6, Mean
# Experimental: Food effect was to be evaluated in Part 1, Period 2. Part 2 was permitted to begin before Part 1 was completed and, in each part, the data from each dose Cohort were to be reviewed for safety before the next dose Cohort was enrolled.
# Part 1 had 6 Cohorts of 12 subjects each (for a total of 72 subjects) and Part 2 had 4 Cohorts of 12 subjects each (for a total of 48 subjects). In Part 1, the 12 subjects in Cohort 3 (400 mg)were studied twice, once under fasting conditions (Period 1) and once under fed conditions (Period 2) for food-effect assessment.
# Pharmacokinetic data were to be summarized descriptively.
smiles,measurement,setting,value
"Nc1nc(O[C@H](c2ccc(Cl)cc2-c2ccccc2)C(F)(F)F)cc(N2CCC3(CC2)CN[C@H](C(=O)O)C3)n1 [KAR5417, (S)-8-(2-amino-6-((R)-1-(5-chloro-[1,1T-biphenyl]-2-yl)-2,2,2-trifluoroeth-oxy)pyrimidin-4-yl)-2,8-diazaspiro[4.5]decane-3-carboxylic acid]",AUC(0-t),"400 mg, AUC0-24, KAR5417 after 400 mg KAR5585 single oral, fed, Cohort 3B, Mean",5430 ng·h/mL
same,AUC(0-inf),"400 mg, AUC0-inf, Geometric Mean, Cohort 3A (Fasting), 400 mg KAR5585 single oral dose, fasting",3280 ng·h/mL
same,AUC(0-inf),"400 mg, AUC0-inf, Geometric Mean, Cohort 3B (Fed), 400 mg KAR5585 single oral dose, fed",6630 ng·h/mL
same,AUC,[1],3120 ng·h/mL
same,AUC,[2],6360 ng·h/mL
same,AUC,[3],3120 ng·h/mL
same,AUC,[4],3500 ng·h/mL
same,AUC,[5],6360 ng·h/mL
same,AUC,[6],6440 ng·h/mL
same,AUC(0-inf),"400 mg, AUC0-∞, KAR5417 after 400 mg KAR5585 single oral, fasted, Cohort 3A, Geo. Mean",3280 ng·h/mL
same,AUC(0-inf),"400 mg, AUC0-∞, KAR5417 after 400 mg KAR5585 single oral, fasted, Cohort 3A, Mean",3650 ng·h/mL
same,AUC(0-inf),"400 mg, AUC0-∞, KAR5417 after 400 mg KAR5585 single oral, fed, Cohort 3B, Geo. Mean",6630 ng·h/mL
same,AUC(0-inf),"400 mg, AUC0-∞, KAR5417 after 400 mg KAR5585 single oral, fed, Cohort 3B, Mean",6710 ng·h/mL
same,concentration at 12 h,"400 mg, C12, KAR5417 after 400 mg KAR5585 single oral, fasted, Cohort 3A, Geo. Mean",75.2 ng/mL
same,concentration at 12 h,"400 mg, C12, KAR5417 after 400 mg KAR5585 single oral, fasted, Cohort 3A, Mean",82.5 ng/mL
same,concentration at 12 h,"400 mg, C12, KAR5417 after 400 mg KAR5585 single oral, fed, Cohort 3B, Geo. Mean",165 ng/mL
same,concentration at 12 h,"400 mg, C12, KAR5417 after 400 mg KAR5585 single oral, fed, Cohort 3B, Mean",169 ng/mL
same,Cmax,[1],444 ng/mL
same,Cmax,[2],831 ng/mL
same,Cmax,[3],444 ng/mL
same,Cmax,[4],485 ng/mL
same,Cmax,[5],831 ng/mL
same,Cmax,[6],860 ng/mL
same,AUC(0-t),"400 mg, Plasma AUC0-96, KAR5417 in plasma, 400 mg (fasted) KAR5585 single oral dose, mean",3630 ng·h/mL
same,AUC(0-t),"400 mg, Plasma AUC0-96, KAR5417 in plasma, 400 mg (fed) KAR5585 single oral dose, mean",6590 ng·h/mL
same,half-life,"400 mg, t1/2, KAR5417 after 400 mg KAR5585 single oral, fasted, Cohort 3A, Geo. Mean",557 min
same,half-life,"400 mg, t1/2, KAR5417 after 400 mg KAR5585 single oral, fasted, Cohort 3A, Mean",678 min
same,half-life,"400 mg, t1/2, KAR5417 after 400 mg KAR5585 single oral, fed, Cohort 3B, Geo. Mean",1190 min
same,half-life,"400 mg, t1/2, KAR5417 after 400 mg KAR5585 single oral, fed, Cohort 3B, Mean",1230 min
same,Tmax,"400 mg, tmax, KAR5417 after 400 mg KAR5585 single oral, fasted, Cohort 3A, Median",4 h
same,Tmax,"400 mg, tmax, KAR5417 after 400 mg KAR5585 single oral, fed, Cohort 3B, Median",4 h
same,AUC(0-t),"700 mg, AUC0-12, KAR5417 after 700 mg KAR5585 single oral, fasted, Cohort 4, Geo. Mean",3050 ng·h/mL
same,AUC(0-t),"700 mg, AUC0-12, KAR5417 after 700 mg KAR5585 single oral, fasted, Cohort 4, Mean",4350 ng·h/mL
same,AUC(0-t),"700 mg, AUC0-24, KAR5417 after 700 mg KAR5585 single oral, fasted, Cohort 4, Geo. Mean",3720 ng·h/mL
same,AUC(0-t),"700 mg, AUC0-24, KAR5417 after 700 mg KAR5585 single oral, fasted, Cohort 4, Mean",5310 ng·h/mL
same,AUC,[7],3870 ng·h/mL
same,AUC,[8],5840 ng·h/mL
same,AUC(0-inf),"700 mg, AUC0-∞, KAR5417 after 700 mg KAR5585 single oral, fasted, Cohort 4, Geo. Mean",4170 ng·h/mL
same,AUC(0-inf),"700 mg, AUC0-∞, KAR5417 after 700 mg KAR5585 single oral, fasted, Cohort 4, Mean",6020 ng·h/mL
same,concentration at 12 h,"700 mg, C12, KAR5417 after 700 mg KAR5585 single oral, fasted, Cohort 4, Geo. Mean",93.8 ng/mL
same,concentration at 12 h,"700 mg, C12, KAR5417 after 700 mg KAR5585 single oral, fasted, Cohort 4, Mean",144 ng/mL
same,Cmax,[7],544 ng/mL
same,Cmax,[8],778 ng/mL
same,AUC(0-t),"700 mg, Plasma AUC0-96, KAR5417 in plasma, 700 mg KAR5585 single oral dose, mean",5990 ng·h/mL
same,half-life,"700 mg, t1/2, KAR5417 after 700 mg KAR5585 single oral, fasted, Cohort 4, Mean",810 min
same,Tmax,"700 mg, tmax, KAR5417 after 700 mg KAR5585 single oral, fasted, Cohort 4, Median",4 h
same,AUC(0-t),"1200 mg, AUC0-12, KAR5417 after 1200 mg KAR5585 single oral, fasted, Cohort 5, Geo. Mean",4580 ng·h/mL
same,AUC(0-t),"1200 mg, AUC0-12, KAR5417 after 1200 mg KAR5585 single oral, fasted, Cohort 5, Mean",5350 ng·h/mL
same,AUC(0-t),"1200 mg, AUC0-24, KAR5417 after 1200 mg KAR5585 single oral, fasted, Cohort 5, Geo. Mean",5810 ng·h/mL
same,AUC(0-t),"1200 mg, AUC0-24, KAR5417 after 1200 mg KAR5585 single oral, fasted, Cohort 5, Mean",6790 ng·h/mL
same,AUC,[9],6580 ng·h/mL
same,AUC,[10],7700 ng·h/mL
same,AUC(0-inf),"1200 mg, AUC0-∞, KAR5417 after 1200 mg KAR5585 single oral, fasted, Cohort 5, Geo. Mean",6880 ng·h/mL
same,AUC(0-inf),"1200 mg, AUC0-∞, KAR5417 after 1200 mg KAR5585 single oral, fasted, Cohort 5, Mean",7970 ng·h/mL
same,concentration at 12 h,"1200 mg, C12, KAR5417 after 1200 mg KAR5585 single oral, fasted, Cohort 5, Geo. Mean",175 ng/mL
same,concentration at 12 h,"1200 mg, C12, KAR5417 after 1200 mg KAR5585 single oral, fasted, Cohort 5, Mean",213 ng/mL
same,Cmax,[9],764 ng/mL
same,Cmax,[10],896 ng/mL
same,AUC(0-t),"1200 mg, Plasma AUC0-96, KAR5417 in plasma, 1200 mg KAR5585 single oral dose, mean",7910 ng·h/mL
same,half-life,"1200 mg, t1/2, KAR5417 after 1200 mg KAR5585 single oral, fasted, Cohort 5, Geo. Mean",840 min
same,half-life,"1200 mg, t1/2, KAR5417 after 1200 mg KAR5585 single oral, fasted, Cohort 5, Mean",894 min
same,Tmax,"1200 mg, tmax, KAR5417 after 1200 mg KAR5585 single oral, fasted, Cohort 5, Median",6 h
same,AUC(0-t),"2000 mg, AUC0-12, KAR5417 after 2000 mg KAR5585 single oral, fasted, Cohort 6, Geo. Mean",6550 ng·h/mL
same,AUC(0-t),"2000 mg, AUC0-12, KAR5417 after 2000 mg KAR5585 single oral, fasted, Cohort 6, Mean",6910 ng·h/mL
same,AUC(0-t),"2000 mg, AUC0-24, KAR5417 after 2000 mg KAR5585 single oral, fasted, Cohort 6, Geo. Mean",8520 ng·h/mL
same,AUC(0-t),"2000 mg, AUC0-24, KAR5417 after 2000 mg KAR5585 single oral, fasted, Cohort 6, Mean",9080 ng·h/mL
same,AUC,[11],9880 ng·h/mL
same,AUC,[12],10600 ng·h/mL
same,AUC(0-inf),"2000 mg, AUC0-∞, KAR5417 after 2000 mg KAR5585 single oral, fasted, Cohort 6, Geo. Mean",10200 ng·h/mL
same,AUC(0-inf),"2000 mg, AUC0-∞, KAR5417 after 2000 mg KAR5585 single oral, fasted, Cohort 6, Mean",10900 ng·h/mL
same,concentration at 12 h,"2000 mg, C12, KAR5417 after 2000 mg KAR5585 single oral, fasted, Cohort 6, Geo. Mean",280 ng/mL
same,concentration at 12 h,"2000 mg, C12, KAR5417 after 2000 mg KAR5585 single oral, fasted, Cohort 6, Mean",354 ng/mL
same,Cmax,[11],1030 ng/mL
same,Cmax,[12],1080 ng/mL
same,AUC(0-t),"2000 mg, Plasma AUC0-96, KAR5417 in plasma, 2000 mg KAR5585 single oral dose, mean",10700 ng·h/mL
same,half-life,"2000 mg, t1/2, KAR5417 after 2000 mg KAR5585 single oral, fasted, Cohort 6, Geo. Mean",1330 min
same,half-life,"2000 mg, t1/2, KAR5417 after 2000 mg KAR5585 single oral, fasted, Cohort 6, Mean",1360 min
same,Tmax,"2000 mg, tmax, KAR5417 after 2000 mg KAR5585 single oral, fasted, Cohort 6, Median",5 h
same,Tmax,"median tmax, range across cohorts, single oral 100-2000 mg KAR5585, fasting cohorts",3 to 6 h
same,time by which all subjects had measurable concentrations,"postdose, single oral KAR5585",≤ 0.25 h
same,time concentrations remained above the LLOQ,"single 100 mg KAR5585, fasting",up to 12 hours
same,time concentrations remained above the LLOQ,"single 200 mg KAR5585, fasting",≤ 24 h
same,time concentrations remained above the LLOQ / measurable,"single 400 mg KAR5585, fasting",≤ 36 h
same,time concentrations remained above the LLOQ,"single 700 mg KAR5585, fasting",≤ 48 h
same,time concentrations remained above the LLOQ,"single 1200 mg KAR5585, fasting",≤ 48 h
same,time concentrations remained above the LLOQ,"single 2000 mg KAR5585, fasting",≤ 72 h
same,"dose proportionality of AUC0-inf and Cmax (power model, 95% CI of slope)","single dose range 100 to 2000 mg KAR5585, fasting",dose proportionality was concluded
same,plasma concentrations of KAR5417 relative to plasma concentrations of KAR5585,"single oral KAR5585, fasting",approximately 10 fold
